Data on 61 compounds can be found in a melting point compilation (Tetko et al.; mined from patent text by program, amines drawn as free bases though some values may be those of a salt).

For the compound `Cc1nc(-c2cccc(Cn3ccc4nc(C(C)C)n(Cc5ccc6ccc(-c7noc(C)n7)cc6c5)c4c3=O)c2)no1`, the melting point lay in the range of 108 to 109 °C. The same measure for `C[C@H](Nc1nc(N=[N+]=[N-])nc(Cl)c1-c1c(F)cc(F)cc1F)C(F)(F)F`: 152 to 154 °C.

`COCc1nc2c(NCc3c(C)cccc3C)cc(C(=O)O)cc2n1C` yielded a melting point of 269 to 272 °C. `CCOC(=O)c1nnnn1Cc1ccc(OC)cc1` gave a melting point of 52 °C. As for `CC1(C)NC(=O)c2cc(C#N)ccc2O1`, the figure is 127 to 129 °C; as for `Cc1ccccc1-c1nc(-c2ccc(F)cc2)n[nH]1`, 119 to 121 °C; as for `CCC(CC)n1ccn(-c2ccc(N3CCN(c4ccc(OC)cc4)CC3)cc2)c1=O`, 196 °C. As for `O=C(O)Cc1cc(=O)n(Cc2ccc(Cl)cc2)c2ccc([N+](=O)[O-])cc12`, the figure is 217 to 219 °C; as for `CCCCCCCCCCCCCCCCSCC(CNS(=O)(=O)CCCCl)OC(=O)NC` (stereo unspecified), 84.5 to 85.5 °C. As for `CCOC(=O)c1cc(=O)c2c(OCC(O)COc3ccccc3C)cccc2o1` (stereo unspecified), the figure is 75 to 76 °C. In turn, `CC(C)c1cc(C(C)C)c(SSc2c(C(C)C)cc(C(C)C)cc2C(C)C)c(C(C)C)c1` showed a melting point of 93 to 94 °C. Consider `CCCCCCc1cn(CC2OC(n3cnc4c(NCc5ccc(OC)cc5)ncnc43)C(O)C2O)nn1` (stereo unspecified), for which the melting point lay within 101 to 102 °C. Compound `CC(S)CNC(=O)OCc1ccc([N+](=O)[O-])cc1` (stereo unspecified) registered a melting point of 54 to 56.5 °C.

For the compound `CCn1cc(-c2nc(C(N)=O)c(N)nc2-c2ccccc2)ccc1=O`, the melting point is above 250 °C.

Compound `Cc1cc(CCC(=O)O)cc(-c2nc(=O)c3ccccc3s2)n1` had a melting point of 233 to 235 °C.

In the case of `N=C(N)NCCc1ccc(OCCCC(c2ccccc2)(c2ccccc2)c2ccccc2)cc1`, the melting point lay within 169 to 170 °C.

With `COCCc1nc2c(N)nc3ccccc3c2n1CC(C)C`, the melting point was in the range of 168 to 170 °C. As for `O=Cc1ccccc1Oc1ccc(C(F)(F)F)cc1[N+](=O)[O-]`, the figure is 79 to 81 °C; as for `NC(=O)C(N)Cc1ccc([N+](=O)[O-])cc1` (stereo unspecified), 160 to 162 °C. The same measure for `CCOC(=O)c1ccc(-c2ccc(-c3ccccc3O)c(-c3ccc4c(c3)C(C)(C)CCC4(C)C)c2)cc1`: 161 to 163 °C; for `CC(C)N1CCC(COc2ncc(C(=O)c3ccc(Cl)cc3)n2C)CC1`: 126 to 127 °C; for `Clc1ccc(-c2c(Cc3nc4ccccc4s3)cnn2-c2ccccc2)cc1`: 135 to 137 °C. As for `COc1ccccc1OCC(O)CN1CCC(N2CCCNC2=O)CC1` (stereo unspecified), the figure is 130 to 133 °C; as for `CS(=O)(=O)NC(=O)c1ccc(Cl)cc1NC(=O)c1cc(-c2ccc(Cl)cc2)oc1C(F)(F)F`, 259 to 262 °C. `CC(C)CN1c2ccccc2C(C)(C)C12C=Nc1cc(-c3ccc(N4CCCC4)cc3)c3ccccc3c1O2` (stereo unspecified): the melting point lay within 242 to 245 °C. The same measure for `O=C1c2ccccc2C(=O)N1CCS(=O)(=O)CCO`: 120 to 122 °C; for `CCC(C)NC(=O)OC1c2ccccc2C(=O)N1c1ccc2ccc(Cl)nc2n1` (stereo unspecified): 220 to 222 °C; for `CC1(C)Oc2ccc(C(=O)CO)cc2[C@H](NC(=O)c2ccc(F)cc2)[C@H]1O`: 216 °C. `Cc1ccn(-c2cncc(F)c2)n1` registered a melting point of 70 to 72 °C. In turn, `CNc1ncnc2c1ncn2Cc1c(F)cccc1Cl` came in with a melting point of 188 to 190 °C. As for `COc1cc2cccc(OC)c2cc1C(=O)O`, the figure is 151 to 153 °C; as for `O=C(O)C1CCN(C(=O)c2ccccc2SSc2ccccc2C(=O)N2CCC(C(=O)O)CC2)CC1`, above 250 °C.

Regarding `Cc1noc(-c2cccc(NC(=O)N[C@@H]3c4cc(C#N)ccc4OC(C)(C)[C@H]3O)c2)n1`, the melting point lay within 157 to 161 °C. As for `CC(=O)Oc1ccc2c3c(cc(Cl)c2c1)-c1cc(F)c(OC(C)=O)cc1CO3`, the figure is 194 to 198 °C. The same measure for `C[C@@H]1CN(c2ccc(C(F)(F)F)cn2)C[C@H](C)N1CC(=O)N1CC=C(c2ccc3ccccc3n2)CC1`: 94 to 95 °C; for `CC(NC(=O)c1ccc(N)cc1)C(=O)O` (stereo unspecified): 198 to 199 °C. For `CN(C)c1ccccc1CC(=O)N1C[C@H]2[C@@H](C1)C(c1ccccc1)(c1ccccc1)CC[C@@H]2O`, the melting point stood at 160 °C. `Nc1ccc(Oc2c(Cl)cc(C(F)(F)F)cc2Cl)cc1S(=O)(=O)c1cc[nH]n1`: the melting point stood at 232 °C. With `O=C(O)Cc1ccc(OCCNC(=O)C2Cc3ccccc3N2S(=O)(=O)c2ccc(-c3ccc(F)cc3)cc2)cc1` (stereo unspecified), the melting point was found to be 81 °C.

`O=C1c2cc3ccc4c(c3c(-c3ccncc3)c2C[NH+]1[O-])OCO4` (stereo unspecified) came in with a melting point of 270 to 274 °C. `Cc1c(C)c(Cl)c(C(=O)c2ccccc2)c(C)c1Cl` registered a melting point of 105 to 107 °C. As for `O=C(Nc1ccccc1N1CCOCC1)c1cccc2c1C(=O)c1ccccc1-2`, the figure is 154 to 156 °C; as for `COc1cc(C=O)ccc1OCc1nc(-c2ccccc2)sc1C`, 133 to 134 °C. The same measure for `OCc1ccc2ncc(C(=S)NCc3ccc(Cl)cc3)c(O)c2c1`: 240 to 242 °C. As for `CC(=O)Oc1c(C)cc(C2C(=O)Oc3c2cc(C(C)(C)C)cc3C(C)(C)C)cc1C` (stereo unspecified), the figure is 165 to 166 °C.

As for `CC(=O)OC1C(NC(=O)c2ccc(C(F)(F)F)cc2)c2sc(C(C)=O)cc2OC1(C)C` (stereo unspecified), the melting point fell in the range of 225 to 227 °C. The compound `COC(=O)c1cccc2c1ccn2S(C)(=O)=O` came in with a melting point of 102 to 104 °C. As for `CCc1c(CC(=O)O)c(C)nc(C)c1Cc1nc2c(F)c(F)cc(F)c2s1`, the figure is 193 to 195 °C; as for `COC1=NS(=O)(=O)N=C1OC`, 200 to 202 °C; as for `CCS(=O)(=O)N(Cc1cccnc1)c1ccc(F)cc1F`, 91 to 92 °C. The same measure for `CCC(C)NC(=O)c1ncc(C)cc1C(=O)OC` (stereo unspecified): 58 to 60 °C; for `CC(C)(C)OC(=O)NCCc1cccc(O)c1`: 79 to 82 °C.

Consider `CCOC(Cc1ccc(OCCOC2c3ccccc3CCc3ccccc32)cc1)C(=O)O` (stereo unspecified), for which the melting point was 148 to 150 °C. As for `Cc1cc(C)nc(-n2nc(S(=O)(=O)Nc3c(Cl)cccc3Cl)nc2N)n1`, the figure is 306 to 312 °C; as for `O=C1NCCCC12c1ccccc1-c1ccccc12`, above 250 °C; as for `O=C1Cc2cc(F)ccc2Sc2ccccc21`, 98 to 100 °C. As for `O=C(c1ccccc1)N1CCc2[nH]c3cccc(CCCOc4ccccc4)c3c2CC1`, the figure is 121 to 124 °C. The same measure for `CCCCc1nc(SCCO)c(C(=O)O)n1Cc1ccc(-c2ccccc2C(=O)O)cc1`: 194 °C. Compound `CC(C)(C)c1cc(-c2nnc(NCCO)s2)cc(C(C)(C)C)c1O` displayed a melting point of 212 to 214 °C. As for `CCOC(=O)c1ncc2[nH]c3ccc(C#N)cc3c2c1COC`, the figure is 252 to 255 °C.

`COC(=O)c1cccc2oc(SCCCN3CCN(CC(=O)Nc4c(C(C)C)cccc4C(C)C)CC3)nc12` registered a melting point of 132 to 133 °C.
